Reference: ChEMBL document CHEMBL3872261, “Coumarins and other fused bicyclic heterocycles with selective tumor-associated carbonic anhydrase isoforms inhibitory activity” (Bioorg Med Chem, 2017)

Key:
Carbonic anhydrase 1 = Carbonic anhydrase 1 (Homo sapiens, UniProt P00915); assay: Inhibition of human recombinant carbonic anhydrase-1 preincubated for 6 hrs by stopped-flow CO2 hydration assay
Carbonic anhydrase 2 = Carbonic anhydrase 2 (Homo sapiens, UniProt P00918); assay: Inhibition of human recombinant carbonic anhydrase-2 preincubated for 6 hrs by stopped-flow CO2 hydration assay
Carbonic anhydrase 9 = Carbonic anhydrase 9 (Homo sapiens, UniProt Q16790); assay: Inhibition of human recombinant carbonic anhydrase-9 preincubated for 6 hrs by stopped-flow CO2 hydration assay
Carbonic anhydrase 12 = Carbonic anhydrase 12 (Homo sapiens, UniProt O43570); assay: Inhibition of human recombinant carbonic anhydrase-12 preincubated for 6 hrs by stopped-flow CO2 hydration assay
Sequence of Carbonic anhydrase 12 (O43570 whole entry): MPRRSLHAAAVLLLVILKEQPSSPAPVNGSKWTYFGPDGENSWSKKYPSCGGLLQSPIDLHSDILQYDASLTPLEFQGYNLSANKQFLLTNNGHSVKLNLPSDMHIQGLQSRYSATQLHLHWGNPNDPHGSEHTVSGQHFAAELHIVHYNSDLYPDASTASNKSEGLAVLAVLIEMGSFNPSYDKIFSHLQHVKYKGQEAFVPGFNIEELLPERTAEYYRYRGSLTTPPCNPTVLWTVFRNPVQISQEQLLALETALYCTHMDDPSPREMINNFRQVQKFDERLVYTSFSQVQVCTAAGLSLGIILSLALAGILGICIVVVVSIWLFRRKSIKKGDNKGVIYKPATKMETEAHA

Sequence of Carbonic anhydrase 1 (P00915 whole entry): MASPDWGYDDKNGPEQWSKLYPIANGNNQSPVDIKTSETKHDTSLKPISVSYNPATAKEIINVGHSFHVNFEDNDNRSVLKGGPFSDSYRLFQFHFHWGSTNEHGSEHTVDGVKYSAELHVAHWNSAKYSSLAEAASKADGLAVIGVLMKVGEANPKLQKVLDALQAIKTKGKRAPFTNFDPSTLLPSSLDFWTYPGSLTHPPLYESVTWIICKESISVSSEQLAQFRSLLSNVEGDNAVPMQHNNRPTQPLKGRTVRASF

Ki (Carbonic anhydrase 1) [nM] | Ki (Carbonic anhydrase 2) [nM] | Ki (Carbonic anhydrase 9) [nM] | SMILES | Ki (Carbonic anhydrase 12) [nM]
12600 | 378 | 116 | O=S1(=O)NC=Nc2ccccc21 | 
13800 | 642 | 349 | CC1=Nc2ccccc2S(=O)(=O)N1 | 
> 500000 | > 500000 | 5470 | O=c1[nH]c(=O)c2cc([N+](=O)[O-])ccc2[nH]1 | 
> 500000 | > 500000 | 18.4 | Cc1cc(=O)oc2cc(NC(=O)c3ccccc3NC(=O)c3ccc(Cl)cc3)ccc12 | 
> 500000 | > 500000 | 21.6 | Cc1cc(=O)oc2cc(NC(=O)c3ccccc3NC(=O)c3ccccc3)ccc12 | 
> 500000 | > 500000 | 15.1 | Cc1cc(=O)oc2cc(NC(=O)c3ccccc3NC(=O)c3ccc(F)cc3)ccc12 | 
783 | 127 | 87.4 | O=C1Nc2ccccc2S(=O)(=O)N1 | 

SMILES | Ki (Carbonic anhydrase 1) [nM] | Ki (Carbonic anhydrase 2) [nM] | Ki (Carbonic anhydrase 9) [nM] | Ki (Carbonic anhydrase 12) [nM]
O=C(Nc1ccccc1C(=O)Nc1ccc2c(C(F)(F)F)cc(=O)oc2c1)c1ccc(Cl)cc1 | > 500000 | > 500000 | 24.5 | 
O=C(Nc1ccccc1C(=O)Nc1ccc2c(C(F)(F)F)cc(=O)oc2c1)c1ccc(F)cc1 | > 500000 | > 500000 | 20 | 
O=C(Nc1ccccc1C(=O)Nc1ccc2c(C(F)(F)F)cc(=O)oc2c1)c1ccccc1 | > 500000 | > 500000 | 10.9 | 
O=c1[nH]cnc2ccccc12 [QUINAZOLINONE] |  | > 500000 | 15700 | 10500
